{"source": "paper PMC7206119", "about": "“RIP1 inhibition blocks inflammatory diseases but not tumor growth or metastases” (Cell Death and Differentiation, 2019)", "experiment_in_all_cases": "biochemical", "parameters_in_all_cases": "DiscoverX kinase panel, active-site competition binding (KINOMEscan type), percent of control at one concentration", "details_in_all_cases": "competition binding, percent of control", "key": {"GRK1": {"target": "GRK1 (Homo sapiens, UniProt Q15835)", "sequence (Q15835 whole entry)": "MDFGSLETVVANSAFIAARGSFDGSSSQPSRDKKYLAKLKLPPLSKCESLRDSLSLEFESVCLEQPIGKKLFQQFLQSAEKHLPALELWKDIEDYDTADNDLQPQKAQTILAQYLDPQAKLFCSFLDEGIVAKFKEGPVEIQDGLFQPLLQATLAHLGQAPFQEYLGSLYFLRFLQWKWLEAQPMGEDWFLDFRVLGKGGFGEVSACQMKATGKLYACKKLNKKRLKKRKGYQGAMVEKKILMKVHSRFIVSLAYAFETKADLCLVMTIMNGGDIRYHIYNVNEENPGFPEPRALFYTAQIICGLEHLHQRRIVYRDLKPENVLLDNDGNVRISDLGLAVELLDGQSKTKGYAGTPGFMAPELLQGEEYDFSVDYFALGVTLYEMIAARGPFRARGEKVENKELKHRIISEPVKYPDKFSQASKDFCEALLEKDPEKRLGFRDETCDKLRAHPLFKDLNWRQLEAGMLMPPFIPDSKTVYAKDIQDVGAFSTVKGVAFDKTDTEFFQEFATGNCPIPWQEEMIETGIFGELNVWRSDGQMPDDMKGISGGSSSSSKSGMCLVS", "text": "(§1) To investigate the potential therapeutic benefit of inhibiting RIP1, we developed GNE684 or (S)-N-((S)-7-methoxy-1-methyl-2-oxo-2,3,4,5-tetrahydro-1H-pyrido[3,4-b]azepin-3-yl)-5-phenyl-6,7-dihydro-5H-pyrrolo[1,2-b][1,2,4]triazole-2-carboxamide with cross-species potency against RIP1, exquisite kinase selectivity, and favorable pharmacological properties (Fig. 1a–h, S1, Tables S1 and S2, SI file 1). […] (Fig. 1b, S1, and Table S1). […] GNE684 inhibited human RIP1 potently in vitro, and mouse and rat RIP1 with slightly less potency (Fig. 1d). Accordingly, it inhibited TNF-induced necroptosis in human HT-29, mouse L929, or rat H9c2 cells (Fig. 1e). The cellular potency of GNE684 was confirmed in a human whole blood assay using TBZ (TNF, IAP antagonist BV6, and pan-caspase inhibitor zVAD) or LZ (LPS plus zVAD) to trigger necroptosis and the release of IL-1α and IL-1β (Fig. 1f)."}, "CAMK1D": {"target": "CAMK1D (Homo sapiens, UniProt Q8IU85)", "sequence (Q8IU85 whole entry)": "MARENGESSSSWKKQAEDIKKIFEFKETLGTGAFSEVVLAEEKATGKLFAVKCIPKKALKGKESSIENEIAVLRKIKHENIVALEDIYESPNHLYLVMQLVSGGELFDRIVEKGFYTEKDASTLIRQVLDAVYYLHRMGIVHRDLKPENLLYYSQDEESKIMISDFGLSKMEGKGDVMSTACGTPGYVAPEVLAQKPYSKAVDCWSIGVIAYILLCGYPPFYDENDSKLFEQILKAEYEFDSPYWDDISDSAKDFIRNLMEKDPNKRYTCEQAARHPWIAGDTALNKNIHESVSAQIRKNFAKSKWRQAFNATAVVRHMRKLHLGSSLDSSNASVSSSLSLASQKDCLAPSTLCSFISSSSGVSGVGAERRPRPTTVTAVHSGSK", "text": "as §1"}, "[1]": {"target": "T1, ABL1(F317I)-nonphosphorylated (Homo sapiens, UniProt P00519, F317I)", "T1 construct": "nonphosphorylated", "text": "as §1"}, "ERK5": {"target": "T2, ERK5 (Homo sapiens, UniProt Q13164)", "T2 construct": "gene MAPK7", "text": "as §1"}, "LIMK1": {"target": "LIMK1 (Homo sapiens, UniProt P53667)", "text": "as §1"}, "AKT1": {"target": "AKT1 (Homo sapiens, UniProt P31749)", "sequence (P31749 whole entry)": "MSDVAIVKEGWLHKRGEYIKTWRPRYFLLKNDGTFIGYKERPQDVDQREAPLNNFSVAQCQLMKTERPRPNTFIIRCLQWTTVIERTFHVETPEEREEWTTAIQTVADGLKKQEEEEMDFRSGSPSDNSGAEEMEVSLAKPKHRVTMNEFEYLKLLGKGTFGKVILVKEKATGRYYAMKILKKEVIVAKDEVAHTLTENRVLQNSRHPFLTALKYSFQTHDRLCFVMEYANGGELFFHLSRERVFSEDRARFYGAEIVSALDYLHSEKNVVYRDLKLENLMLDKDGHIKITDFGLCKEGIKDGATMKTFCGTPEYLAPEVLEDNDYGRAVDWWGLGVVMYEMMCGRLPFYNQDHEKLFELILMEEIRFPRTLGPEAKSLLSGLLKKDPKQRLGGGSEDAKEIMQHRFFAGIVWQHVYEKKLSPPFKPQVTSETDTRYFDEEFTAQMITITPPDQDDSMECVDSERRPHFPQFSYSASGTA", "text": "as §1"}, "TRKC": {"target": "T3, TRKC (Homo sapiens, UniProt Q16288)", "T3 construct": "gene NTRK3", "text": "as §1"}, "ERBB3": {"target": "ERBB3 (Homo sapiens, UniProt P21860)", "text": "as §1"}, "ALK(C1156Y)": {"target": "ALK(C1156Y) (Homo sapiens, UniProt Q9UM73, C1156Y)", "text": "as §1"}, "ERK8": {"target": "T4, ERK8 (Homo sapiens, UniProt Q8TD08)", "T4 construct": "gene MAPK15", "text": "as §1"}, "CSK": {"target": "CSK (Homo sapiens, UniProt P41240)", "text": "as §1"}, "FGFR1": {"target": "FGFR1 (Homo sapiens, UniProt P11362)", "text": "as §1"}, "EPHA4": {"target": "EPHA4 (Homo sapiens, UniProt P54764)", "text": "as §1"}, "ABL1-phosphorylated": {"target": "T5, ABL1-phosphorylated (Homo sapiens, UniProt P00519)", "T5 construct": "phosphorylated", "text": "as §1"}, "WNK1": {"target": "WNK1 (Homo sapiens, UniProt Q9H4A3)", "sequence (Q9H4A3 whole entry)": "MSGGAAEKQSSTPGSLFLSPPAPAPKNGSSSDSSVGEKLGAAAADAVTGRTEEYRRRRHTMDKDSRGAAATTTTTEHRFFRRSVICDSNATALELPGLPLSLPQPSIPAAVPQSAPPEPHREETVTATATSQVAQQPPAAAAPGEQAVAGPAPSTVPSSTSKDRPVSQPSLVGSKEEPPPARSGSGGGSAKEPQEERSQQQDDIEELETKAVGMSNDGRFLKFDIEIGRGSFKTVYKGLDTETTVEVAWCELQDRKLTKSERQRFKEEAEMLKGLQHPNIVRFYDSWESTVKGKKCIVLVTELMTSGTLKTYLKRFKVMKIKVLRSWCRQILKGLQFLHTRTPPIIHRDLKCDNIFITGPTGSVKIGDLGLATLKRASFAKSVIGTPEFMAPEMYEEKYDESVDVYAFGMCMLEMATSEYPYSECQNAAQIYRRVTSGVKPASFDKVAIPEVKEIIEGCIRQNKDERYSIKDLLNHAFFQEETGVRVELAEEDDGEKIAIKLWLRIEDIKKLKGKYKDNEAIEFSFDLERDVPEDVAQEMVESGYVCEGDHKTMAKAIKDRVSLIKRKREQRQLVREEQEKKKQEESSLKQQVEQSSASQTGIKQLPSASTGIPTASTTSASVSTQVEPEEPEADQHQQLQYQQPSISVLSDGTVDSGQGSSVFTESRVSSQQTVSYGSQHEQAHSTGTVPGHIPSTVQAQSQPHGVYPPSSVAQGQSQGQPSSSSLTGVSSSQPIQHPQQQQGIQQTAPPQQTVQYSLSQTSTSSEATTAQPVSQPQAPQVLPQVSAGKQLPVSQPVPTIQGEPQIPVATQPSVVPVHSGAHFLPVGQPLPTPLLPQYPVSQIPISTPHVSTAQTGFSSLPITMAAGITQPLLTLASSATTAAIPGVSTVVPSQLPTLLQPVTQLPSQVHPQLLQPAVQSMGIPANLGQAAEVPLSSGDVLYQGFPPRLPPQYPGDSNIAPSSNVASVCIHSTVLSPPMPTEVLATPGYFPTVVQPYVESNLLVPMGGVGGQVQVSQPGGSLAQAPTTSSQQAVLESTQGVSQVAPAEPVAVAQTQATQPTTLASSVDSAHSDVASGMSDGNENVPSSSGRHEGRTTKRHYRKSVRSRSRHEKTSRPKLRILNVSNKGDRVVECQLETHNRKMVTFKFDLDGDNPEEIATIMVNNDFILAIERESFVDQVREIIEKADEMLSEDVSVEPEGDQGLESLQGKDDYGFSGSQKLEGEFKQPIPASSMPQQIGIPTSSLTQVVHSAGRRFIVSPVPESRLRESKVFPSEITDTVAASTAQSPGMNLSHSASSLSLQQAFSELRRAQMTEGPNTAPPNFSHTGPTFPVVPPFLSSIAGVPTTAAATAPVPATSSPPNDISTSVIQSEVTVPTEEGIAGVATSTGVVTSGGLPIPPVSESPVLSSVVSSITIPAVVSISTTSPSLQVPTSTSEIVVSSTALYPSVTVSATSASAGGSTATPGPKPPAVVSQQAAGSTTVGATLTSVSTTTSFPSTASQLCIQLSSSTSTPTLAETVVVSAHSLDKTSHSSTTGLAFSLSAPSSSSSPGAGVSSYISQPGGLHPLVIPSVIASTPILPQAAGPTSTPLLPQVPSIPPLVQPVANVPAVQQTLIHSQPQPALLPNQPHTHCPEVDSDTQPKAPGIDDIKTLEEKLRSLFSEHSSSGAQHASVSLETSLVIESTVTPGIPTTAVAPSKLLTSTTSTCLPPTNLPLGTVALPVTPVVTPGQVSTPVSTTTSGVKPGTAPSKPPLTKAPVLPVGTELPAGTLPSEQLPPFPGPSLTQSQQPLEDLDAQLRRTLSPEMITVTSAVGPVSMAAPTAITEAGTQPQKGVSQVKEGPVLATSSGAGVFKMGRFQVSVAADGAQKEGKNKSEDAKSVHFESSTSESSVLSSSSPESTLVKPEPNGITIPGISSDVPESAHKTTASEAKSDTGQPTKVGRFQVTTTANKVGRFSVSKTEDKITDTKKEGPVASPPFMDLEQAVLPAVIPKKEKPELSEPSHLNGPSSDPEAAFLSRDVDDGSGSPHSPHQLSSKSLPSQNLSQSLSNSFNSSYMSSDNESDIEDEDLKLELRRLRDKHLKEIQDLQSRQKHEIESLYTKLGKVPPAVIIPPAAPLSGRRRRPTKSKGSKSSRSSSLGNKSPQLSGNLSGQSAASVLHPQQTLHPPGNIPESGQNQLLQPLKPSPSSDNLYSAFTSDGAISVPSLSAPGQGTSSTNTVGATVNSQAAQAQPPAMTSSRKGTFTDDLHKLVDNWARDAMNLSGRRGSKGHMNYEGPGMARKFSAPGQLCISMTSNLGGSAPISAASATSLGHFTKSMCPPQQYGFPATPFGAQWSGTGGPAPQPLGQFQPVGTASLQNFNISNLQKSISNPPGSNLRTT", "text": "as §1"}, "BMX": {"target": "BMX (Homo sapiens, UniProt P51813)", "text": "as §1"}, "NEK4": {"target": "NEK4 (Homo sapiens, UniProt P51957)", "text": "as §1"}, "[2]": {"target": "T6, ABL1(H396P)-nonphosphorylated (Homo sapiens, UniProt P00519, H396P)", "T6 construct": "nonphosphorylated", "text": "as §1"}, "ULK2": {"target": "ULK2 (Homo sapiens, UniProt Q8IYT8)", "text": "as §1"}, "STK36": {"target": "STK36 (Homo sapiens, UniProt Q9NRP7)", "sequence (Q9NRP7 whole entry)": "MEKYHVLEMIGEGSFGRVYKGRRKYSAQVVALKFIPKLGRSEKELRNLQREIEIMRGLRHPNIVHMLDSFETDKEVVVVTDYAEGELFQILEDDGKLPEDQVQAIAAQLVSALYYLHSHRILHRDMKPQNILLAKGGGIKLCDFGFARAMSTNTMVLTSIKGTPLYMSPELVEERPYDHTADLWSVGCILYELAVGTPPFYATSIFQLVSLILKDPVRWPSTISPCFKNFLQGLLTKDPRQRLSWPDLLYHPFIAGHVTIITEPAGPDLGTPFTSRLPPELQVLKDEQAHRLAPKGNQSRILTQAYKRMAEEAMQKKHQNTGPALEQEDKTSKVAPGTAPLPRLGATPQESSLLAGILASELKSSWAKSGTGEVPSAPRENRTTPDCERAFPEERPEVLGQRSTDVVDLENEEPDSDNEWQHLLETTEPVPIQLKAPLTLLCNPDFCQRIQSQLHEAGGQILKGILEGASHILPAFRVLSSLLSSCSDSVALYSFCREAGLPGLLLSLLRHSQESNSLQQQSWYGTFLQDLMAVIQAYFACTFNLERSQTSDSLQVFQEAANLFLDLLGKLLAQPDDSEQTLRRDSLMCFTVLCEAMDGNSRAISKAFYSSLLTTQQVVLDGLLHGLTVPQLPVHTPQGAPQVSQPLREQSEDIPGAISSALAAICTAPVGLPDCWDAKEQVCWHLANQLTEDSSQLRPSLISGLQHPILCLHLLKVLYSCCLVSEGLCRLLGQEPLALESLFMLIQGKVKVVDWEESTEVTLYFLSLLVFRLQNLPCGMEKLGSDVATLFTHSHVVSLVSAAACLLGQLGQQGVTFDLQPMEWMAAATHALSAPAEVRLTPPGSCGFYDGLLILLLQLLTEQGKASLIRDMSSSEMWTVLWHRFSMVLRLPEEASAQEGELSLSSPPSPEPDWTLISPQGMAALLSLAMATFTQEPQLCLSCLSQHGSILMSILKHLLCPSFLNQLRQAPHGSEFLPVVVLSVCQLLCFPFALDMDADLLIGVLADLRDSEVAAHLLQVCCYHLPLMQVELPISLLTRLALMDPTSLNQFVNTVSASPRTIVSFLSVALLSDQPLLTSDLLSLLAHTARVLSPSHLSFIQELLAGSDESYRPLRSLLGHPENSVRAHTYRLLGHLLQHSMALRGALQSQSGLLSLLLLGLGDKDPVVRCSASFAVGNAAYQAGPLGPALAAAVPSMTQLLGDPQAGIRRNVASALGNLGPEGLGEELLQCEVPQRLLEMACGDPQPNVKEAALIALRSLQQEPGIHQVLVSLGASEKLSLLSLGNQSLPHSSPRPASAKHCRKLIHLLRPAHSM", "text": "as §1"}, "PCTK3": {"target": "T7, PCTK3 (Homo sapiens, UniProt Q07002)", "T7 construct": "gene CDK18", "text": "as §1"}}}
{"smiles": "COc1cc2c(cn1)N(C)C(=O)[C@@H](NC(=O)c1nc3n(n1)[C@H](c1ccccc1)CC3)CC2", "note": "[GNE684, (S)-N-((S)-7-methoxy-1-methyl-2-oxo-2,3,4,5-tetrahydro-1H-pyrido[3,4-b]azepin-3-yl)-5-phenyl-6,7-dihydro-5H-pyrrolo[1,2-b][1,2,4]triazole-2-carboxamide]", "values": [{"measurement": "remaining binding at 10 µM", "setting": "GRK1", "result": 67, "unit": "%"}, {"measurement": "remaining binding at 10 µM", "setting": "CAMK1D", "result": 98, "unit": "%"}, {"measurement": "remaining binding at 10 µM", "setting": "[1]", "result": 97, "unit": "%"}, {"measurement": "remaining binding at 10 µM", "setting": "ERK5", "result": 85, "unit": "%"}, {"measurement": "remaining binding at 10 µM", "setting": "LIMK1", "result": 96, "unit": "%"}, {"measurement": "remaining binding at 10 µM", "setting": "AKT1", "result": 74, "unit": "%"}, {"measurement": "remaining binding at 10 µM", "setting": "TRKC", "result": 69, "unit": "%"}, {"measurement": "remaining binding at 10 µM", "setting": "ERBB3", "result": 96, "unit": "%"}, {"measurement": "remaining binding at 10 µM", "setting": "ALK(C1156Y)", "result": 96, "unit": "%"}, {"measurement": "remaining binding at 10 µM", "setting": "ERK8", "result": 85, "unit": "%"}, {"measurement": "remaining binding at 10 µM", "setting": "CSK", "result": 100, "unit": "%"}, {"measurement": "remaining binding at 10 µM", "setting": "FGFR1", "result": 92, "unit": "%"}, {"measurement": "remaining binding at 10 µM", "setting": "EPHA4", "result": 94, "unit": "%"}, {"measurement": "remaining binding at 10 µM", "setting": "ABL1-phosphorylated", "result": 84, "unit": "%"}, {"measurement": "remaining binding at 10 µM", "setting": "WNK1", "result": 100, "unit": "%"}, {"measurement": "remaining binding at 10 µM", "setting": "BMX", "result": 94, "unit": "%"}, {"measurement": "remaining binding at 10 µM", "setting": "NEK4", "result": 100, "unit": "%"}, {"measurement": "remaining binding at 10 µM", "setting": "[2]", "result": 69, "unit": "%"}, {"measurement": "remaining binding at 10 µM", "setting": "ULK2", "result": 100, "unit": "%"}, {"measurement": "remaining binding at 10 µM", "setting": "STK36", "result": 85, "unit": "%"}, {"measurement": "remaining binding at 10 µM", "setting": "PCTK3", "result": 94, "unit": "%"}]}
